What was measured:
[1] = tested on: spontaneously diabetic BB/Wor dp rats; test: Metabolic parameters, serum insulin and glucagon after intratesticular islet grafts; type: in vivo, rat
From the text: This study examined insulin and glucagon secretory patterns in spontaneously diabetic bb/Wor dp rats transplanted with abdominal, intratesticular, islet grafts. Diabetic, BB/Wor dp, rats received intratesticular islet grafts from MHC-compatible BB/Wor dr rats and no immunosuppression. After a period of 74±15 days, of normoglycemia, three different groups (controls; BB/Wor dp, transplanted; and BB/Wor dp, insulin treated) were given the following challenges; (1) an oral glucose tolerance test (OGTT), (2) a single oral dose of glipizide, followed by an OGTT, and (3) arginine, by intravenous infusion. The results of this study are shown in Tables 1 and 2 and FIGS. 5 and 6.

[2] = tested on: spontaneously diabetic BB/Wor dp rats; test: Pancreatic and testicular insulin and glucagon content; type: in vivo, rat

insulin
Plasma Glucose ([1]; After 2.5 months): 350 ± 40 mg/dL | Plasma Glucose ([1]; Prior to therapy): 510 ± 13+ mg/dl | Fasting Plasma Glucagon ([1]; rat, in vivo): 47.4 ± 4.9 pg/mL | Weight gain ([1]; rat, in vivo): 48 ± 14$ g | Pancreatic Glucagon content ([2]; pancreas): 6.9 ± 0.80 ng/mg | Pancreatic Insulin content ([2]; pancreas): 0.76 ± 0.12 µg/g | Testicular Glucagon content ([2]; testes fractions): 0.0 ng/mg | Testicular Insulin content ([2]; testes fractions): 0.0 µg/g

From US20020065212A1, “METHODS OF TREATING DISEASE USING SERTOLI CELLS AND ALLOGRAFTS OR XENOGRAFTS” (priority 1996, published 2002)
